{
  "source": "ChEMBL document CHEMBL6177967",
  "about": "“Semisynthesis and biological evaluation of 17-hydroxybrevianamide N derivatives as anti-inflammatory agents by mediating NF-κB and MAPK signaling pathways” (Eur J Med Chem, 2025)",
  "key": {"RAW264.7 [1]": {"tested_on": "RAW264.7", "assay": "Cytotoxicity against mouse RAW264.7 cells assessed as inhibition of cell growth at 10 uM incubated for 24 hrs by MTT assay", "format": "toxicity, cell-based", "conditions": "raw264.7, 24 h"}, "RAW264.7 [2]": {"tested_on": "RAW264.7", "assay": "Anti-inflammatory activity in LPS-induced mouse RAW264.7 cells assessed as inhibition of IL-6 level at 2 uM incubated for 24 hrs by ELISA relative to control", "format": "functional"}, "RAW264.7 [3]": {"tested_on": "RAW264.7", "assay": "Anti-inflammatory activity in LPS-induced mouse RAW264.7 cells assessed as inhibition of NO levels incubated for 24 hrs", "format": "functional, cell-based", "conditions": "RAW264.7, 24 h"}, "RAW264.7 [4]": {"tested_on": "RAW264.7", "assay": "Cytotoxicity against mouse RAW264.7 cells assessed as inhibition of cell growth at 2 uM incubated for 24 hrs by MTT assay", "format": "toxicity, cell-based", "conditions": "raw264.7, 24 h"}, "RAW264.7 [5]": {"tested_on": "RAW264.7", "assay": "Anti-inflammatory activity in LPS-induced mouse RAW264.7 cells assessed as inhibition of IL-1beta level at 2 uM incubated for 24 hrs by ELISA relative to control", "format": "functional"}, "RAW264.7 [6]": {"tested_on": "RAW264.7", "assay": "Anti-inflammatory activity in LPS-induced mouse RAW264.7 cells assessed as inhibition of TNF-alpha level at 2 uM incubated for 24 hrs by ELISA relative to control", "format": "functional"}, "RAW264.7 [7]": {"tested_on": "RAW264.7", "assay": "Anti-inflammatory activity in LPS-induced mouse RAW264.7 cells assessed as inhibition of NO levels at 2 uM incubated for 24 hrs", "format": "functional, cell-based"}, "RAW264.7 [8]": {"tested_on": "RAW264.7", "assay": "Cytotoxicity against mouse RAW264.7 cells assessed as inhibition of cell growth at 50 uM incubated for 24 hrs by MTT assay", "format": "toxicity, cell-based", "conditions": "raw264.7, 24 h"}, "RAW264.7 [9]": {"tested_on": "RAW264.7", "assay": "Anti-inflammatory activity in LPS-induced mouse RAW264.7 cells assessed as inhibition of IL-1beta level at 20 uM incubated for 24 hrs by ELISA relative to control", "format": "functional"}, "RAW264.7 [10]": {"tested_on": "RAW264.7", "assay": "Anti-inflammatory activity in LPS-induced mouse RAW264.7 cells assessed as inhibition of TNF-alpha level at 20 uM incubated for 24 hrs by ELISA relative to control", "format": "functional"}, "RAW264.7 [11]": {"tested_on": "RAW264.7", "assay": "Anti-inflammatory activity in LPS-induced mouse RAW264.7 cells assessed as inhibition of IL-6 level at 20 uM incubated for 24 hrs by ELISA relative to control", "format": "functional"}},
  "note": "Calls of active or inactive are those of the source. No cut-off for these calls is given here.",
  "data": [
    {"smiles": "COCOc1ccccc1CC1C(=O)N(Cc2cccc(C)c2)C(=O)c2nc3ccccc3c(=O)n21", "note": "(racemic)", "values": [
      {"measurement": "Activity", "setting": "RAW264.7 [1]", "result": "Non-toxic"}
    ]},
    {"smiles": "O=C1c2nc3ccccc3c(=O)n2[C@@H](Cc2ccccc2O)C(=O)N1Cc1ccccc1Cl", "values": [
      {"measurement": "inhibition at 2 µM", "setting": "RAW264.7 [2]", "result": 19.3, "unit": "%"},
      {"measurement": "IC50", "setting": "RAW264.7 [3]", "result": 1.78, "unit": "µM"},
      {"measurement": "Activity", "setting": "RAW264.7 [4]", "result": "Non-toxic"},
      {"measurement": "inhibition", "setting": "RAW264.7 [5]", "result": "inactive"},
      {"measurement": "inhibition", "setting": "RAW264.7 [6]", "result": "inactive"}
    ]},
    {"smiles": "CC(=O)Oc1ccccc1CC1C(=O)N(C)C(=O)c2nc3ccccc3c(=O)n21", "note": "(racemic)", "values": [
      {"measurement": "Activity", "setting": "RAW264.7 [1]", "result": "Non-toxic"}
    ]},
    {"smiles": "CN1C(=O)c2nc3ccccc3c(=O)n2[C@@H](Cc2ccccc2OCC#N)C1=O", "values": [
      {"measurement": "inhibition at 2 µM", "setting": "RAW264.7 [2]", "result": 31.6, "unit": "%"},
      {"measurement": "IC50", "setting": "RAW264.7 [3]", "result": 1.61, "unit": "µM"},
      {"measurement": "Activity", "setting": "RAW264.7 [4]", "result": "Non-toxic"},
      {"measurement": "inhibition at 2 µM", "setting": "RAW264.7 [5]", "result": 48.8, "unit": "%"},
      {"measurement": "inhibition", "setting": "RAW264.7 [6]", "result": "inactive"}
    ]},
    {"smiles": "CN1C(=O)c2nc3ccccc3c(=O)n2[C@@H](Cc2ccccc2OCc2ccccc2Cl)C1=O", "values": [
      {"measurement": "inhibition at 2 µM", "setting": "RAW264.7 [2]", "result": 21.4, "unit": "%"},
      {"measurement": "IC50", "setting": "RAW264.7 [3]", "result": 1.53, "unit": "µM"},
      {"measurement": "Activity", "setting": "RAW264.7 [4]", "result": "Non-toxic"},
      {"measurement": "inhibition at 2 µM", "setting": "RAW264.7 [5]", "result": 82.1, "unit": "%"},
      {"measurement": "inhibition", "setting": "RAW264.7 [6]", "result": "inactive"}
    ]},
    {"smiles": "CN1C(=O)c2nc3ccccc3c(=O)n2C(Cc2ccccc2OC(=O)c2cccs2)C1=O", "note": "(racemic)", "values": [
      {"measurement": "Activity", "setting": "RAW264.7 [1]", "result": "Non-toxic"}
    ]},
    {"smiles": "Cc1cccc(CN2C(=O)c3nc4ccccc4c(=O)n3C(Cc3ccccc3O)C2=O)c1", "note": "(racemic)", "values": [
      {"measurement": "Activity", "setting": "RAW264.7 [1]", "result": "Non-toxic"},
      {"measurement": "Activity", "setting": "RAW264.7 [7]", "result": "Active"}
    ]},
    {"smiles": "O=C1NC(=O)C(Cc2ccccc2O)n2c1nc1ccccc1c2=O", "note": "(racemic)", "values": [
      {"measurement": "inhibition at 2 µM", "setting": "RAW264.7 [2]", "result": 28.8, "unit": "%"},
      {"measurement": "Activity", "setting": "RAW264.7 [1]", "result": "Non-toxic"},
      {"measurement": "inhibition at 2 µM", "setting": "RAW264.7 [5]", "result": 33.3, "unit": "%"},
      {"measurement": "inhibition", "setting": "RAW264.7 [6]", "result": "inactive"}
    ]},
    {"smiles": "CN1C(=O)C(Cc2ccccc2O)n2c(nc3ccccc3c2=O)C1(O)c1ccccc1", "note": "(racemic)", "values": [
      {"measurement": "Activity", "setting": "RAW264.7 [1]", "result": "Non-toxic"},
      {"measurement": "Activity", "setting": "RAW264.7 [8]", "result": "Non-toxic"}
    ]},
    {"smiles": "COc1ccccc1CC1C(=O)N(Cc2cccc(F)c2)C(=O)c2nc3ccccc3c(=O)n21", "note": "(racemic)", "values": [
      {"measurement": "Activity", "setting": "RAW264.7 [1]", "result": "Non-toxic"}
    ]},
    {"smiles": "CN1C(=O)c2nc3ccccc3c(=O)n2C(Cc2ccccc2O)C1=O", "note": "(racemic)", "values": [
      {"measurement": "Activity", "setting": "RAW264.7 [1]", "result": "Non-toxic"}
    ]},
    {"smiles": "COCC(=O)Oc1ccccc1CC1C(=O)N(C)C(=O)c2nc3ccccc3c(=O)n21", "note": "(racemic)", "values": [
      {"measurement": "Activity", "setting": "RAW264.7 [1]", "result": "Non-toxic"}
    ]},
    {"smiles": "CN1C(=O)c2nc3ccccc3c(=O)n2C(Cc2ccccc2OCc2ccccc2Cl)C1=O", "note": "(racemic)", "values": [
      {"measurement": "Activity", "setting": "RAW264.7 [1]", "result": "Non-toxic"},
      {"measurement": "Activity", "setting": "RAW264.7 [7]", "result": "Active; Strong Ability Of No Inhibition Observed"}
    ]},
    {"smiles": "Cc1ccc(CN2C(=O)c3nc4ccccc4c(=O)n3C(Cc3ccccc3O)C2=O)cc1", "note": "(racemic)", "values": [
      {"measurement": "Activity", "setting": "RAW264.7 [1]", "result": "Non-toxic"},
      {"measurement": "Activity", "setting": "RAW264.7 [8]", "result": "Non-toxic"}
    ]},
    {"smiles": "O=C1c2nc3ccccc3c(=O)n2[C@H](Cc2ccccc2O)C(=O)N1Cc1ccccc1Cl", "values": [
      {"measurement": "inhibition at 2 µM", "setting": "RAW264.7 [2]", "result": 28.8, "unit": "%"},
      {"measurement": "IC50", "setting": "RAW264.7 [3]", "result": 1.19, "unit": "µM"},
      {"measurement": "Activity", "setting": "RAW264.7 [4]", "result": "Non-toxic"},
      {"measurement": "inhibition at 2 µM", "setting": "RAW264.7 [5]", "result": 35.7, "unit": "%"},
      {"measurement": "inhibition", "setting": "RAW264.7 [6]", "result": "inactive"}
    ]},
    {"smiles": "O=C1c2nc3ccccc3c(=O)n2[C@H](Cc2ccccc2O)C(=O)N1Cc1cccc(Br)c1", "values": [
      {"measurement": "inhibition at 2 µM", "setting": "RAW264.7 [2]", "result": 19.2, "unit": "%"},
      {"measurement": "IC50", "setting": "RAW264.7 [3]", "result": 1.37, "unit": "µM"},
      {"measurement": "Activity", "setting": "RAW264.7 [4]", "result": "Non-toxic"},
      {"measurement": "inhibition at 2 µM", "setting": "RAW264.7 [5]", "result": 45.2, "unit": "%"},
      {"measurement": "inhibition", "setting": "RAW264.7 [6]", "result": "inactive"}
    ]},
    {"smiles": "C=CCOc1ccccc1CC1C(=O)N(C)C(=O)c2nc3ccccc3c(=O)n21", "note": "(racemic)", "values": [
      {"measurement": "Activity", "setting": "RAW264.7 [1]", "result": "Non-toxic"},
      {"measurement": "Activity", "setting": "RAW264.7 [8]", "result": "Toxic"},
      {"measurement": "Activity", "setting": "RAW264.7 [7]", "result": "Active; Strong Ability Of No Inhibition Observed"}
    ]},
    {"smiles": "C=CCOc1ccccc1C[C@@H]1C(=O)N(C)C(=O)c2nc3ccccc3c(=O)n21", "values": [
      {"measurement": "inhibition at 2 µM", "setting": "RAW264.7 [2]", "result": 36.5, "unit": "%"},
      {"measurement": "IC50", "setting": "RAW264.7 [3]", "result": 1.68, "unit": "µM"},
      {"measurement": "Activity", "setting": "RAW264.7 [4]", "result": "Non-toxic"},
      {"measurement": "inhibition at 2 µM", "setting": "RAW264.7 [5]", "result": 42.9, "unit": "%"},
      {"measurement": "inhibition", "setting": "RAW264.7 [6]", "result": "inactive"}
    ]},
    {"smiles": "CNC(=N)NCCC[C@H](N)C(=O)O", "note": "[TILARGININE]", "values": [
      {"measurement": "inhibition at 20 µM", "setting": "RAW264.7 [9]", "result": 61.9, "unit": "%"},
      {"measurement": "IC50", "setting": "RAW264.7 [3]", "result": 20, "unit": "µM"},
      {"measurement": "inhibition at 20 µM", "setting": "RAW264.7 [10]", "result": 19.4, "unit": "%"},
      {"measurement": "inhibition at 20 µM", "setting": "RAW264.7 [11]", "result": 27.6, "unit": "%"}
    ]},
    {"smiles": "COCOc1ccccc1CC1C(=O)NC(=O)c2nc3ccccc3c(=O)n21", "note": "(racemic)", "values": [
      {"measurement": "Activity", "setting": "RAW264.7 [1]", "result": "Non-toxic"}
    ]},
    {"smiles": "COc1ccccc1CC1C(=O)N(C)C(=O)c2nc3ccccc3c(=O)n21", "note": "(racemic)", "values": [
      {"measurement": "Activity", "setting": "RAW264.7 [1]", "result": "Non-toxic"}
    ]}
  ]
}
